Experiments:
1-169 K-Ras(M72C) GDP = biological target: T1, 1-169 K-Ras(M72C) GDP (Homo sapiens, UniProt P01116, M72C); assay: Disulfide tethering screen, percent modification by intact protein mass spectrometry; assay type: binding; settings: screening βME 1 mM
T1 construct: Untagged recombinant 1-169 K-Ras(M72C) GDP; His6 (cleaved yes); made in house; host or cells: Escherichia coli BL21(DE3)
Description: In some embodiments, a library of disulfide compounds may be screened against a cysteine-containing protein in the presence of a reducing agent such as β-mercaptoethanol (BME). Compounds with complementary binding contacts with a region of the protein near the cysteine may shift the disulfide exchange equilibrium away from BME modification of the cysteine thiol and enhance the ratio of the hit ligand bound to the cysteine. The resulting mass change of the protein can be readily detected by mass spectrometry, and the percentage of modified protein can be used as a measure of potency. Compounds which exchange with the cysteine without conferring affinity should exchange with reducing agent equally well and will not shift the equilibrium toward protein modification. The potency of various compounds at a given concentration of BME may be compared by calculating the dose-response 50 (DR50), which is the concentration of compound at which the protein becomes 50% modified.
A tethering library of 960 disulfides were screened against 1-169 K-Ras(M72C) GDP using intact protein mass spectrometry to monitor percent modification (See Methods, and FIG. 37). […] To better prioritize tethering fragments, a βME50 value (the concentration of βME needed to reduce disulfide fragment modification to 50%) was determined for each compound. […]

[1] = biological target: T2, H-Ras(M72C) GDP binding to SOScat (Homo sapiens, UniProt P01112, M72C); assay: Ras GDP in vitro pull down by His6 tagged SOScat
T2 construct: and H-Ras (residues 1-166) were transformed into Escherichia coli; His6; made in house; host or cells: Escherichia coli BL21(DE3)
Description: Ras GDP In Vitro Pull Down Assay by His6 Tagged SOS^CAT
This experiment was created based on a procedure published in Hall et al., 2001. For each SOS^CAT in vitro pull down the total volume was 500 μL. Each reaction had the following final composition: Either 20, 80, 200, 400, or 800 nM Ras GDP (from 0.2 mg/mL Ras stock), 75 nM BSA (2.5 μg, 5 μL of 0.5 mg/mL BSA stock), 200 nM of His6-SOS^CAT (6 μg, 3 μL of diluted 0.2 mg/mL stock of His6-SOS^CAT), and SOS^CAT Pull Down Buffer to volume (20 mM Tris (pH 7.6), 50 mM NaCl, 5 mM EDTA, 1% Triton X-100, 20 mM imidazole). Samples were then mixed by gentle rotation at 4° C. for 30 min. While equilibrating, add 50 μL Ni-NTA slurry (Qiagen) to a cellulose acetate spin cup and spin at 5,000 rpm on a tabletop centrifuge for 30 seconds. Wash the beads with 400 μL of SOS^CAT Pull Down Buffer to wash away bead storage buffer. Before adding each pull down solution, take 10 μL and save as a loading control sample. To each spin cup filled with washed Ni-NTA beads, add the remaining equilibrated pull down solution, seal the spin cup with parafilm and let rotate at 4° C. for 30 more minutes. After mixing, centrifuge the sample for 30 seconds at 5,000 rpm. Toss flow through. Wash the beads×5 with 400 μL of SOS^CAT Pull Down Buffer. After last wash, centrifuge one last time to remove any excess buffer stuck to the beads. To each cup, add 50 μL of 5×SDS loading buffer and mix by vortexing. Let the buffer sit on the beads for 5 minutes and then elute into a fresh tube by centrifuging at 5000 rpm for 1.5 minutes. Load 10 μL of each loading control sample and 25 μL of each eluted pull down onto a SDS-PAGE gel and transfer to a nitrocellulose blot for Western Blot analysis. Block with 5% BSA TBS buffer and then blot with pan Ras primary antibody at a 1:500 dilution in 5% BSA in TBST (Cell Signaling #3965). Blots were read out using LICOR compatible secondary antibodies and quantified. The largest input signal was normalized to one for each protein construct and each pull-down signal (i.e. 20 nM, 80 nM, 200 nM, 400 nM, and 800 nM respectively) was reported relative to that maximum signal. Thus, normalized pull-down signals represent the proportion of Ras pulled down relative to the maximum blot signal detected for that particular protein construct.

T1 sequence (P01116 1-169 isoform P01116-2 M72C): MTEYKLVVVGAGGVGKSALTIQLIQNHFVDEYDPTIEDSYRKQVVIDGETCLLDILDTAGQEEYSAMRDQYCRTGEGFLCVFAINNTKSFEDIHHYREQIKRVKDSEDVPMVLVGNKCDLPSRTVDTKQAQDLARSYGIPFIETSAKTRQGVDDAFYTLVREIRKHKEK

- percent modification (1-169 K-Ras(M72C) GDP): 69.7%
- Normalized Averaged Pull Down (SOS PD Assay) ([1]; H-Ras(M72C) 2C07, [Ras] printed 200 nM, input normalized 1.00): 0.09
- Normalized Averaged Pull Down (SOS PD Assay) ([1]; H-Ras(M72C) 2C07, [Ras] 20 nM): 0.002
- Normalized Averaged Pull Down (SOS PD Assay) ([1]; H-Ras(M72C) 2C07, [Ras] 80 nM): 0.01
- Normalized Averaged Pull Down (SOS PD Assay) ([1]; H-Ras(M72C) 2C07, [Ras] 200 nM): 0.03
- Normalized Averaged Pull Down (SOS PD Assay) ([1]; H-Ras(M72C) 2C07, [Ras] 400 nM): 0.06
SMILES: COc1ccc(-n2ncc(C(=O)NCCCSSCCN(C)C)c2C(F)(F)F)cc1 [Compound 2C07, N-(3-((2-(dimethylamino)ethyl)disulfanyl)propyl)-1-(4-methoxyphenyl)-5-(trifluoromethyl)-1H-pyrazole-4-carboxamide]

Source: US11136297B2, “Compositions and methods for treating cancer” (THE REGENTS OF THE UNIVERSITY OF CALIFORNIA, priority 2016, dated 2021)
